Measured values: patent US20130231303A1, “5-HALOGENOPYRAZOLE(THIO)CARBOXAMIDES” (Bayer Intellectual Property GmbH, priority 2010, published 2013)
Where two headings read alike, the source gives them in different places.

Assays:
Alternaria solani = experiment: Alternaria test (tomato)/preventive; assay type: in vivo; details: preventive, 500 ppm, evaluated 7 days after inoculation
Procedure: The plants remain for one day in an incubation cabinet at approximately 22° C. and a relative atmospheric humidity of 100%. Then the plants are placed in an incubation cabinet at approximately 20° C. and a relative atmospheric humidity of 96%.

Puccinia recondita = experiment: Puccinia test (wheat)/preventive; assay type: in vivo; details: preventive, 500 ppm, evaluated 7-9 days after inoculation
Procedure: (§1) The plants remain for 48 hours in an incubation cabinet at 22° C. and a relative atmospheric humidity of 100%. Then the plants are placed in a greenhouse at a temperature of approximately 20° C. and a relative atmospheric humidity of approximately 80%.

Pyrenophora teres = experiment: Pyrenophora test (barley)/preventive; assay type: in vivo; details: preventive, 500 ppm, evaluated 7-9 days after inoculation
Procedure: as §1

[1] = test system: Fusarium nivale (var. majus); experiment: Fusarium nivale (var. majus)-test (wheat)/preventive; assay type: in vivo; details: preventive; for Efficacy: evaluated 5 days after inoculation
Procedure: After the spray coating has been dried, the plants are slightly injured by using a sandblast and afterwards they are sprayed with a conidia suspension of Fusarium nivale (var. majus). The plants are placed in the greenhouse under a translucent incubation cabinet at a temperature of approximately 10° C. and a relative atmospheric humidity of approximately 100%.

[2] = test system: Blumeria graminis f.sp. hordei; experiment: Blumeria test (barley)/preventive; assay type: in vivo; details: preventive, 500 ppm, evaluated 7 days after inoculation
Procedure: After the spray coating has been dried, the plants are dusted with spores of Blumeria graminis f.sp. hordei. The plants are placed in the greenhouse at a temperature of approximately 18° C. and a relative atmospheric humidity of approximately 80% to promote the development of mildew pustules.

[3] = logP by HPLC on reversed-phase column (EEC Directive 79/831 Annex V.A8); assay type: physicochemical
Procedure: In table 1, the logP values were determined in accordance with EEC Directive 79/831 Annex V.A8 by HPLC (High Performance Liquid Chromatography) on a reversed-phase column (C 18), using the method described below: Temperature: 40° C.; Mobile phases: 0.1% aqueous formic acid and acetonitrile; linear gradient from 10% acetonitrile to 90% acetonitrile. Calibration was carried out using unbranched alkan-2-ones (comprising 3 to 16 carbon atoms) with known logP values (determination of the logP values by the retention times using linear interpolation between two successive alkanones). lambda-max-values were determined using UV-spectra from 200 nm to 400 nm and the peak values of the chromatographic signals.

Botrytis cinerea = experiment: Botrytis test (beans)/preventive; assay type: in vivo; details: preventive, 100 ppm, lesion size 2 days after inoculation
Procedure: Botrytis Test (Beans)/Preventive
• Solvent: 24.5 parts by weight of acetone • 24.5 parts by weight of N,N-dimethylformamide • Emulsifier: 1 part by weight of alkylaryl polyglycol ether
After the spray coating has dried on, 2 small pieces of agar covered with growth of Botrytis cinerea are placed on each leaf. The inoculated plants are placed in a darkened chamber at 20° C. and a relative atmospheric humidity of 100%.
2 days after the inoculation, the size of the lesions on the leaves is evaluated.

Sphaerotheca fuliginea = experiment: Sphaerotheca test (cucumber)/preventive; assay type: in vivo; details: preventive, 500 ppm, evaluated 7 days after inoculation
Procedure: Then the plants are placed in a greenhouse at approximately 23° C. and a relative atmospheric humidity of approximately 70%.

Venturia inaequalis = experiment: Venturia test (apples)/preventive; assay type: in vivo; details: preventive, 100 ppm, evaluated 10 days after inoculation
Procedure: Venturia Test (Apples)/Preventive […] After the spray coating has dried on, the plants are inoculated with an aqueous conidia suspension of the causal agent of apple scab (Venturia inaequalis) and then remain for 1 day in an incubation cabinet at approximately 20° C. and a relative atmospheric humidity of 100%.

Uromyces appendiculatus = experiment: Uromyces test (beans)/preventive; assay type: in vivo; details: preventive, 100 ppm, evaluated 10 days after inoculation
Excerpt: Uromyces Test (Beans)/Preventive

Phakopsora pachyrhizi = experiment: Phakopsora test (soybeans)/protective; assay type: in vivo; details: protective, 250 ppm, evaluated 11 days after inoculation
Excerpt: Phakopsora Test (Soybeans)/Protective

[4] = HPLC, reversed-phase C 18, 40° C., 0.1% aqueous formic acid and acetonitrile gradient

Row | Structure (SMILES) | Efficacy (Alternaria solani) | Efficacy (Puccinia recondita) | Efficacy (Pyrenophora teres) | logP [3, 4] | further results
1 | CCC=C(C)c1sccc1NC(=O)c1c(C(F)F)nn(C)c1Cl (mixture of isomers) [Example 22] | 94% | 80% | 94% | – | –
2 | CCCC=C(C)c1sccc1NC(=O)c1c(C(F)F)nn(C)c1Cl (mixture of isomers) [Example 26] | 75% | – | 89% | – | –
3 | CCC=C(CCC)c1sccc1NC(=O)c1c(C(F)F)nn(C)c1Cl (mixture of isomers) [Example 32] | – | 80% | – | – | –
4 | CC(=CC(C)(C)C)c1sccc1NC(=O)c1c(C(F)F)nn(C)c1Cl (mixture of isomers) [Example 33] | 88% | 95% | 94% | – | –
5 | CC(=CCC(C)C)c1sccc1NC(=O)c1c(C(F)F)nn(C)c1Cl (mixture of isomers) [Example 34] | – | – | 78% | – | –
6 | CC(C)CC(C)c1sccc1NC(=O)c1cn(C)nc1C(F)(F)F (stereo not shown) [Example 1.13 from EP-0737682, 1-methyl-N-[2-(4-methylpentan-2-yl)-3-thienyl]-3-(trifluoromethyl)-1H-pyrazole-4-carboxamide, reference compound] | – | – | – | – | Efficacy ([1]; 250 ppm): 14%; Efficacy ([1]; 500 ppm): 43%; protection ([1]; dose of 250 ppm and 500 ppm (text summary of table G2)): less than 50%
7 | CC(C)CCc1sccc1NC(=O)c1c(C(F)F)nn(C)c1Cl [Example 1] | 100% | 95% | 100% | 3.74 | Efficacy ([1]; 500 ppm): 80%; Efficacy [2]: 94%
8 | CCCC(C)c1sccc1NC(=O)c1c(C(F)F)nn(C)c1Cl (stereo not shown) [Example 2] | 94% | 100% | 100% | 3.70 | –
9 | CC(C)CC(C)c1sccc1NC(=O)c1c(C(F)F)nn(C)c1F (stereo not shown) [Example 4] | 100% | 100% | 100% | 3.94 | Efficacy (Botrytis cinerea): 97%; Efficacy (Sphaerotheca fuliginea): 100%; Efficacy (Venturia inaequalis): 100%; Efficacy (Uromyces appendiculatus): 100%; Efficacy (Phakopsora pachyrhizi): 99%; Efficacy [2]: 100%
10 | CCC(CC)Cc1sccc1NC(=O)c1c(C(F)F)nn(C)c1Cl [Example 5] | 100% | 90% | 100% | 4.03 | –
11 | Cn1nc(C(F)F)c(C(=O)Nc2ccsc2CCC(C)(C)C)c1Cl [Example 6] | 95% | 100% | 100% | 4.01 | Efficacy ([1]; 500 ppm): 100%; Efficacy (Sphaerotheca fuliginea): 89%; Efficacy [2]: 94%
12 | CCCCC(C)c1sccc1NC(=O)c1c(C(F)F)nn(C)c1Cl (stereo not shown) [Example 7] | – | 100% | 95% | 4.25 | Efficacy ([1]; 500 ppm): 90%
13 | CCCCC(C)c1sccc1NC(=O)c1c(C(F)F)nn(C)c1Cl (stereo not shown) [Example 8] | 94% | 95% | 100% | 4.13 | –
14 | CCC(c1sccc1NC(=O)c1c(C(F)F)nn(C)c1Cl)C(C)C (stereo not shown) [Example 9] | 94% | 80% | 100% | 4.07 | –
15 | CCC(C)C(C)c1sccc1NC(=O)c1c(C(F)F)nn(C)c1Cl (stereo not shown) [Example 10] | – | 90% | 100% | – | logP [3]: 3.99
16 | CC(CCCC#N)c1sccc1NC(=O)c1c(C(F)F)nn(C)c1Cl (stereo not shown) [Example 11] | – | 100% | 94% | – | logP [3]: 2.57
17 | Cn1nc(C(F)F)c(C(=O)Nc2ccsc2CC2CCCCC2)c1Cl [Example 12] | 100% | 95% | 100% | 4.27 | Efficacy [2]: 94%
18 | CCC(C)C(C)Cc1sccc1NC(=O)c1c(C(F)F)nn(C)c1Cl (stereo not shown) [Example 13] | 95% | 90% | 100% | 4.41 | Efficacy ([1]; 500 ppm): 100%; Efficacy [2]: 100%
19 | CCCC(CCC)c1sccc1NC(=O)c1c(C(F)F)nn(C)c1Cl [Example 14] | – | 70% | 94% | – | logP [3]: 4.54

Row | Structure (SMILES) | Efficacy (Alternaria solani) | Efficacy (Puccinia recondita) | Efficacy (Pyrenophora teres) | logP [3, 4] | further results
20 | CCC(CC(C)C)c1sccc1NC(=O)c1c(C(F)F)nn(C)c1Cl (stereo not shown) [Example 15] | 88% | 90% | 100% | 4.46 | Efficacy [2]: 94%
21 | CC(C)CCC(C)c1sccc1NC(=O)c1c(C(F)F)nn(C)c1Cl (stereo not shown) [Example 16] | 88% | 100% | 94% | 4.45 | –
22 | CC(CC(C)(C)C)c1sccc1NC(=O)c1c(C(F)F)nn(C)c1Cl (stereo not shown) [Example 17] | 94% | 100% | 94% | 4.29 | Efficacy (Sphaerotheca fuliginea): 100%
23 | Cn1nc(C(F)F)c(C(=O)Nc2ccsc2CC[Si](C)(C)C)c1Cl [Example 18] | 80% | 100% | 100% | 4.30 | Efficacy (Botrytis cinerea): 91%; Efficacy ([1]; 500 ppm): 100%; Efficacy (Sphaerotheca fuliginea): 98%; Efficacy (Venturia inaequalis): 94%; Efficacy (Uromyces appendiculatus): 100%; Efficacy [2]: 92%
24 | Cn1nc(C(F)F)c(C(=O)Nc2ccsc2CC[Si](C)(C)C)c1F [Example 19] | 90% | 100% | 100% | 4.06 | Efficacy (Botrytis cinerea): 100%; Efficacy ([1]; 500 ppm): 100%; Efficacy (Sphaerotheca fuliginea): 100%; Efficacy (Venturia inaequalis): 99%; Efficacy (Uromyces appendiculatus): 100%; Efficacy [2]: 100%
25 | Cn1nc(C(F)F)c(C(=S)Nc2ccsc2CC[Si](C)(C)C)c1F [Example 20] | – | – | – | – | logP [3]: 4.46
26 | CC(c1sccc1NC(=O)c1c(C(F)F)nn(C)c1Cl)C1CCCCC1 (stereo not shown) [Example 21] | 95% | 95% | 100% | 4.56 | –
27 | Cn1nc(C(F)F)c(C(=O)Nc2ccsc2C=CC(C)(C)C)c1Cl [Example 23] | 70% | 90% | 80% | 3.92 | –
28 | CCC(=Cc1sccc1NC(=O)c1c(C(F)F)nn(C)c1Cl)CC [Example 24] | – | 90% | 90% | – | logP [3]: 4.06
29 | CCCCC=Cc1sccc1NC(=O)c1c(C(F)F)nn(C)c1Cl [Example 25] | – | – | – | – | logP [3]: 4.12
30 | CC=C(c1sccc1NC(=O)c1c(C(F)F)nn(C)c1Cl)C(C)C [Example 27] | 75% | 80% | 89% | 4.26 | –
31 | CCC(C)=C(C)c1sccc1NC(=O)c1c(C(F)F)nn(C)c1Cl [Example 28] | 94% | 80% | 100% | 4.23 | –
32 | Cn1nc(C(F)F)c(C(=O)Nc2ccsc2C=C2CCCCC2)c1Cl [Example 30] | 70% | – | 80% | – | logP [3]: 4.25
33 | CCC(C)C(C)=Cc1sccc1NC(=O)c1c(C(F)F)nn(C)c1Cl (stereo not shown) [Example 31] | – | – | 70% | 4.41 | –
34 | C=C(c1sccc1NC(=O)c1c(C(F)F)nn(C)c1Cl)C1CCCCC1 [Example 36] | – | 80% | 95% | – | –
35 | CC=C(c1ccccc1)c1sccc1NC(=O)c1c(C(F)F)nn(C)c1Cl [Example 37] | – | – | – | – | logP [3]: 3.70
36 | Cn1nc(C(F)F)c(C(=O)Nc2ccsc2-c2ccccc2)c1F [Example 38] | – | – | – | – | logP [3]: 3.11
37 | Cc1ccc(-c2ccsc2NC(=O)c2c(C(F)F)nn(C)c2F)cc1 [Example 40] | – | – | – | – | logP [3]: 3.60
38 | Cn1nc(C(F)F)c(C(=O)Nc2cc(-c3ccc(Cl)cc3)cs2)c1F [Example 41] | – | – | – | – | logP [3]: 3.87
